Where two headings read alike, the source gives them in different places.
Key:
[1] = Sample appearance on sample preparation in water; format: physicochemical; conditions: 1 mL of water was added to 1 mg solid
[2] = test system: β-D-glucuronidase (bovine liver); test: Glycosidase inhibition (Table 2 panel); format: biochemical
Excerpt: (§1) The enzymes α-D-glucosidase (yeast), β-D-glucosidases (almond, bovine liver), α-D-galactosidase (coffee beans), β-D-galactosidase (bovine liver), α-D-mannosidase (Jack bean), β-D-mannosidase (snail), α-L-rhamnosidase (P. decumbens), α-L-fucosidase (bovine kidney), trehalase (porcine kidney), β-D-glucuronidases (E. coli, bovine liver), amyloglucosidase (A. niger), para-nitrophenyl glycosides, and various disaccharides were purchased from Sigma-Aldrich Co (St. Louis, MO, USA).
(§2) Brush border membranes were prepared from the rat small intestine according to the method of Kessler et al., and were assayed at pH 6.8 for rat intestinal maltase using maltose. For rat intestinal maltase, porcine kidney trehalase, and A. niger amyloglucosidase activities, the reaction mixture contained maltose ([…]) and the appropriate amount of enzyme, and the incubations were performed for 10–30 min at 37 °C. The reaction was stopped by heating at 100 °C for 3 min. After centrifugation (600 g; 10 min), the resulting reaction mixture was added to the Glucose CII-test Wako (Wako Pure Chemical Ind., Osaka, Japan). The absorbance at 505 nm was measured to determine the amount of the released D-glucose. Other glycosidase activities were determined using an appropriate para-nitrophenyl glycoside as substrate at the optimum pH of each enzyme. The reaction mixture contained the substrate ([…]) and the appropriate amount of enzyme. The reaction was stopped by the addition of Na2CO3 ([…]). The released para-nitrophenol was measured spectrometrically at 400 nm. All reactions were run in […].

[3] = test system: β-D-mannosidase (snail); test: Glycosidase inhibition (Table 2 panel); format: biochemical
Excerpt: as §1, §2

[4] = test system: β-D-glucosidase (almond); test: Glycosidase inhibition (Table 2 panel); format: biochemical
Excerpt: as §1, §2

[5] = test system: T1, trehalase (porcine kidney); test: Glycosidase inhibition (Table 2 panel); format: biochemical
T1 construct: purchased Sigma-Aldrich; host or cells: porcine kidney
Excerpt: as §1, §2

[6] = test system: T2, α-D-mannosidase (Jack bean); test: Glycosidase inhibition (Table 2 panel); format: biochemical
T2 construct: purchased Sigma-Aldrich; host or cells: Jack bean
Excerpt: as §1, §2

[7] = test system: α-D-glucosidase (rat intestinal maltase); test: Glycosidase inhibition (Table 2 panel); format: biochemical
Excerpt: as §1, §2

[8] = target: α-D-glucosidase (rice) (Oryza sativa subsp. japonica, UniProt Q653V7); test: Glycosidase inhibition (Table 2 panel); format: biochemical
Excerpt: as §1, §2

[9] = test system: α-L-rhamnosidase (P. decumbens); test: Glycosidase inhibition (Table 2 panel); format: biochemical
Excerpt: as §1, §2

[10] = target: T3, β-D-glucosidase (bovine liver) (Bos taurus, UniProt F1MNT6); test: Glycosidase inhibition (Table 2 panel); format: biochemical
T3 sequence (F1MNT6 1-469): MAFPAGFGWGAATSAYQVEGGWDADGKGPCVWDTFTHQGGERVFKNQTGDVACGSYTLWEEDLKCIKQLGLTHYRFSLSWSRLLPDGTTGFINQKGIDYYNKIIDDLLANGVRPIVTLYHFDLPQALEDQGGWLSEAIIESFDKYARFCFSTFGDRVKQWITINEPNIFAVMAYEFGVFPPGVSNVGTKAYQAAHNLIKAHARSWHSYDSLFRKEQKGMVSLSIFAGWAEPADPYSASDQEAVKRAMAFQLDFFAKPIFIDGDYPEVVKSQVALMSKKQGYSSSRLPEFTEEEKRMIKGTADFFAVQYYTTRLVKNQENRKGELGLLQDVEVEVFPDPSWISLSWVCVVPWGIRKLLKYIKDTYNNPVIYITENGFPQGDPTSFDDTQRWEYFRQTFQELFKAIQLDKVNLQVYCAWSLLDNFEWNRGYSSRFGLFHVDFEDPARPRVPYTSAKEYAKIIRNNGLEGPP
Excerpt: as §1, §2

[11] = test system: T4, α-D-galactosidase (coffee beans); test: Glycosidase inhibition (Table 2 panel); format: biochemical
T4 construct: purchased Sigma-Aldrich; host or cells: coffee beans
Excerpt: as §1, §2

[12] = test system: MIA-Pa-Ca2 (pancreatic carcinoma); test: Cancer screening, MTT growth inhibition; format: cell-based; conditions: for inhibition at 25 µM: MIA PaCa-2, 25 µM of drug, read-out: DOSE SCREEN percentage (%) cell growth inhibition MIA-Pa-Ca2 Pancreatic; for GI50: read-out: DOSE RESPONSE GI50 MIA-Pa-Ca2 Pancreatic
Method: (§3) For Table 4, all test agents were prepared as stock solutions ([…]) in dimethyl sulfoxide (DMSO) and stored at −20 °C. Cell lines used in the study included HT29 (colorectal carcinoma), A2780 (ovarian carcinoma), H460 (lung carcinoma), A431 (skin carcinoma), MiaPaCa-2 (pancreatic carcinoma), and SMA560 (spontaneous murine astrocytoma), together with MCF10A (non-tumour derived normal breast cell line). Cell line sources: the HT29, H460, and MiaPaCa-2, together with MCF10A were purchased from ATCC. The A2780 and A431 were purchased from the European Collection of Cell Culture (ECACC). All cell lines were incubated in a humidified atmosphere 5% CO2 at 37 °C. The cancer cell lines were maintained in Dulbecco’s modified Eagle’s medium (DMEM; Sigma, Truganina, Australia) supplemented with foetal bovine serum (10%), sodium pyruvate ([…]), penicillin (100 IUmL^−1), streptomycin (100 µg mL^−1), and L-glutamine ([…]).
(§4) Growth inhibition was determined by plating cells in duplicate in medium (100 µL) at a density of 2500–4000 cells per well in 96-well plates. On day 0 (24 h after plating), when the cells are in logarithmic growth, medium (100 µL) with or without the test agent was added to each well. […] Each data point is the mean ± the standard error of the mean (SEM) calculated from three replicates which were performed on separate occasions and separate cell line passages.

[13] = test system: H460 (lung carcinoma); test: Cancer screening, MTT growth inhibition; format: cell-based; conditions: for inhibition at 25 µM: NCI-H460, 25 µM of drug, read-out: DOSE SCREEN percentage (%) cell growth inhibition H460 Lung; for GI50: read-out: DOSE RESPONSE GI50 H460 Lung
Method: as §3, §4

[14] = test system: A2780 (ovarian carcinoma); test: Cancer screening, MTT growth inhibition; format: cell-based; conditions: for inhibition at 25 µM: A2780, 25 µM of drug, read-out: DOSE SCREEN percentage (%) cell growth inhibition A2780 Ovarian; for GI50: read-out: DOSE RESPONSE GI50 A2780 Ovarian
Method: as §3, §4

[15] = test system: MCF10A (non-tumour derived normal breast cell line); test: Cancer screening, MTT growth inhibition; format: cell-based; conditions: 72 h; for inhibition at 25 µM: read-out: DOSE SCREEN percentage (%) cell growth inhibition MCF10A Breast (normal); for GI50: read-out: DOSE RESPONSE GI50 MCF10A Breast (normal)
[16] = Homo sapiens, MCF-10A, 25 µM of drug

Sequence of α-D-glucosidase (rice) (Q653V7 34-885): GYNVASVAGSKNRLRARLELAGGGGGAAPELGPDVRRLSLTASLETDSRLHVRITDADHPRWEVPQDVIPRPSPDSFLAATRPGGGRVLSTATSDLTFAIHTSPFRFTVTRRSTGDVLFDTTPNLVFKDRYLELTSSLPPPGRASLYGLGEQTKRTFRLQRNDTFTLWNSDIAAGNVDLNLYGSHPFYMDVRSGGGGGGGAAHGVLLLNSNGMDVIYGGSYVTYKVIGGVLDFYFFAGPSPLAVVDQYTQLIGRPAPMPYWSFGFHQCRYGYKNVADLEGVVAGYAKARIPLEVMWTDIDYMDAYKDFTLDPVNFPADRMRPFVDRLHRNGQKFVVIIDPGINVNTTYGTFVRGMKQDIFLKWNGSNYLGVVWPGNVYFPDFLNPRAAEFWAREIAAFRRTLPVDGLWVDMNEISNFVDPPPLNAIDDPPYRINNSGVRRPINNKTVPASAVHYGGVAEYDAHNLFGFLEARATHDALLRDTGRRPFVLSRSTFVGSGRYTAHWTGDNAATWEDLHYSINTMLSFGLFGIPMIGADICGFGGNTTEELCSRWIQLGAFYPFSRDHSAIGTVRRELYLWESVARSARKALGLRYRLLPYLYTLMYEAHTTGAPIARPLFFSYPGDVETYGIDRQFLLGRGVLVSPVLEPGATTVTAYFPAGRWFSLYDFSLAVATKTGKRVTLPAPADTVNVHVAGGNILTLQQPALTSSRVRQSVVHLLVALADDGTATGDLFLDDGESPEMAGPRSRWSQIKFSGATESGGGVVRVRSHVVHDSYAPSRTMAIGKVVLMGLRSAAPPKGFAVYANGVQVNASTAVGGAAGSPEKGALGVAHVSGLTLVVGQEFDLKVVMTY

Compound	Sample Appearance [1]	inhibition % β-D-Glucuronidase Bovine Liver ([2]; at 100 μM)	inhibition % β-D-Glucuronidase Bovine Liver ([2]; at 1000 μM)	inhibition % β-D-Mannosidase Snail ([3]; at 100 μM)	inhibition % β-D-Mannosidase Snail ([3]; at 1000 μM)	inhibition % β-D-Glucosidase Almond ([4]; at 100 μM)	inhibition % β-D-Glucosidase Almond ([4]; at 1000 μM)	inhibition % Trehalase Porcine Kidney ([5]; at 100 μM)	inhibition % Trehalase Porcine Kidney ([5]; at 1000 μM)	inhibition % α-D-Mannosidase Jack Bean ([6]; at 100 μM)	inhibition % α-D-Mannosidase Jack Bean ([6]; at 1000 μM)	inhibition % α-D-Glucosidase Rat Intestinal Maltase ([7]; at 100 μM)	inhibition % α-D-Glucosidase Rat Intestinal Maltase ([7]; at 1000 μM)	inhibition % α-L-Rhamnosidase P. decumbens ([9]; at 100 μM)	inhibition % α-L-Rhamnosidase P. decumbens ([9]; at 1000 μM)	inhibition at 100 µM ([10]; at 100 μM)	inhibition % α-D-Galactosidase Coffee Beans ([11]; at 100 μM)	inhibition % α-D-Galactosidase Coffee Beans ([11]; at 1000 μM)	inhibition at 25 µM ([12]; Homo sapiens, 72 h)	inhibition at 25 µM ([13]; Homo sapiens, 72 h)	other results
OB(O)c1cccc(CN2C[C@@H](O)[C@H]3OC(O)[C@H](O)[C@H]32)c1 (stereo partly drawn) [meta 3, N-(3-Methylphenylboronic acid)-3,6-dideoxy-3,6-imino-D-gulofuranose]	In solution	^cNI ^d(1.2%)	^aNI ^b(7.2%)	^cNI ^d(0%)	^aNI ^b(0%)	^cNI ^d(24.8%)	^aNI ^b(45.8%)	^cNI ^d(20.9%)	^aNI ^b(0%)	^cNI ^d(0%)	^aNI ^b(0%)	^cNI ^d(12.3%)	^aNI ^b(2.0%)	^cNI ^d(1.2%)	^aNI ^b(3.2%)	8.2%	^cNI ^d(0%)	^aNI ^b(0.7%)	17 ± 4%	2 ± 2%	inhibition at 100 µM ([8]; at 100 μM): 0%; inhibition at 1000 µM ([8]; at 1000 μM): 5.9%; GI50 ([12]; Homo sapiens, MIA PaCa-2, 72 h): > 50 µM; GI50 ([13]; Homo sapiens, NCI-H460, 72 h): > 50 µM; inhibition at 25 µM ([14]; Homo sapiens, 72 h): 18 ± 1%; GI50 ([14]; Homo sapiens, A2780, 72 h): > 50 µM; inhibition at 25 µM [15, 16]: 6 ± 4%; GI50 ([15]; Homo sapiens, MCF-10A): > 50 µM
CC1(C)O[C@H]2O[C@H]3[C@@H]([C@H]2O1)N(Cc1ccccc1B1OC(C)(C)C(C)(C)O1)C[C@H]3O [ortho 2, N-(2-Methylphenylboronic acid pinacol ester)-3,6-dideoxy-3,6-imino-1,2-O-isopropylidene-α-D-gulofuranose]	In solution	^cNI ^d(2.2%)	^aNI ^b(8.4%)	^cNI ^d(0%)	^aNI ^b(7.8%)	^cNI ^d(35%)	^aNI ^b(7.2%)	^cNI ^d(5.6%)	^aNI ^b(1.8%)	^cNI ^d(9.4%)	^aNI ^b(1.3%)	^cNI ^d(15.5%)	^aNI ^b(0%)	^cNI ^d(1.5%)	^aNI ^b(2.0%)	4.9%	^cNI ^d(0%)	^aNI ^b(2.9%)	9 ± 7%	11 ± 4%	inhibition at 100 µM ([8]; at 100 μM): 0%; inhibition at 1000 µM ([8]; at 1000 μM): 0%; inhibition at 1000 µM ([10]; at 1000 μM): 19.7%; GI50 ([12]; Homo sapiens, MIA PaCa-2, 72 h): > 50 µM; GI50 ([13]; Homo sapiens, NCI-H460, 72 h): > 50 µM; inhibition at 25 µM ([14]; Homo sapiens, 72 h): 7 ± 2%; GI50 ([14]; Homo sapiens, A2780, 72 h): > 50 µM; inhibition at 25 µM [15, 16]: 9 ± 4%; GI50 ([15]; Homo sapiens, MCF-10A): > 50 µM
N-(3-Hydroxyphenyl)-1,4-dideoxy-1,4-imino-L-gulitol [meta 7]	In solution	^cNI ^d(1.2%)	^aNI ^b(0%)	^cNI ^d(0%)	^aNI ^b(0%)	^cNI ^d(0%)	^aNI ^b(9.6%)	^cNI ^d(0%)	^aNI ^b(1.9%)	^cNI ^d(0%)	^aNI ^b(0%)	^cNI ^d(0%)	^aNI ^b(7.2%)	^cNI ^d(3.8%)	^aNI ^b(2.1%)		^cNI ^d(1.8%)	^aNI ^b(1.7%)			inhibition % α-D-Glucosidase Rice ([8]; at 100 μM): ^cNI ^d(0%); inhibition % α-D-Glucosidase Rice ([8]; at 1000 μM): ^aNI ^b(5.0%); inhibition % β-D-Glucosidase Bovine Liver ([10]; at 100 μM): ^cNI ^d(0%); inhibition % β-D-Glucosidase Bovine Liver ([10]; at 1000 μM): ^aNI ^b(13.6%); DOSE SCREEN percentage (%) cell growth inhibition MIA-Pa-Ca2 Pancreatic ([12]; 25 µM of drug, 72 h): 39 ± 2%; GI50 ([12]; 72 h): 51 ± 1.5 µM; DOSE SCREEN percentage (%) cell growth inhibition H460 Lung ([13]; 25 µM of drug, 72 h): 37 ± 3%; GI50 ([13]; 72 h): 47 ± 7 µM; DOSE SCREEN percentage (%) cell growth inhibition A2780 Ovarian ([14]; 25 µM of drug, 72 h): 48 ± 7%; GI50 ([14]; 72 h): 30 ± 20 µM; DOSE SCREEN percentage (%) cell growth inhibition MCF10A Breast (normal) ([15]; 25 µM of drug): 31 ± 16%; GI50 [15]: 43 ± 17 µM
N[C@@H](Cc1ccc(B(O)O)cc1)C(=O)O [BPA, 4-borono-L-phenylalanine, reference compound]	Some in solution with undissolved sediment	^cNI ^d(7.4%)		^cNI ^d(2.1%)		^cNI ^d(0%)		^cNI ^d(0%)		^cNI ^d(1.1%)		^cNI ^d(0%)		^cNI ^d(0%)		0%	^cNI ^d(4.3%)		3%	7%	inhibition at 25 µM ([14]; Homo sapiens, 72 h): 4%; inhibition at 25 µM [15, 16]: 4%

Reference: article PMC12655172, “Borylated 5-Membered Ring Iminosugars: Synthesis and Biological Evaluation for Glycosidase Inhibition and Anticancer Properties for Application in Boron Neutron Capture Therapy (BNCT)—Part 2” (Pharmaceuticals, 2025)
